Legend:
[1] = target: 15-PGDH (Homo sapiens (Human), UniProt P15428); test: 15-PGDH inhibitory activity (NADH at 340 nm); assay type: biochemical; conditions: concentration inhibiting 50% of 15-PGDH activity; purified 15-PGDH, 21 μM PGE2, 0.25 mM NAD+
Procedure, shortened: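 GST-purified human 15-PGDH (E. coli BL-21 LysS, 10 μg) with 21 μM PGE2 and 0.25 mM NAD+ in 50 mM Tris-HCl pH 7.5, 0.1 mM DTT. Compound tested at 0.0001–64 μM; NADH formation read by absorbance at 340 nm against a standard curve.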

[2] = test system: A549 cells; test: Measurement of PGE2 concentration in A549 cell medium (ELISA); assay type: cell-based, human; conditions: for Increment %: PGE2 concentration versus PBS control, 5 μM, 12 hours; for PGE2 concentration: inhibitor 5 μM, medium collected after 12 hours, ELISA
Procedure, shortened: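 A549 cells in RPMI 1640 with 8% FBS, seeded at 5×10^5 cells/well and grown 24 h at 37° C, 5% CO2; at ~80% confluence treated with 15-PGDH inhibitor at 5 μM in PBS (PBS-only negative control). After 12 h, PGE2 in the medium was measured by ELISA against a standard curve.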

15-PGDH, sequence (P15428 whole entry): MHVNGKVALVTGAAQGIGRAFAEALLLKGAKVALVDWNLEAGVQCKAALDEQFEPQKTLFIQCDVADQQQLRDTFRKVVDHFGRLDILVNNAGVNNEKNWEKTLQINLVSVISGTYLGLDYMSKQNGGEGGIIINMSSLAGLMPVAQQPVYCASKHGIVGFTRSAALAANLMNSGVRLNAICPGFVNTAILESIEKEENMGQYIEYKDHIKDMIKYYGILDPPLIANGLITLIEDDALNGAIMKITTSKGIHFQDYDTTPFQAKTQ

Row | Compound | IC50 [1] [µM] | Increment % [2] [%] | PGE2 concentration [2] [pg/mL]
1 | O=C(O)c1ccccc1.O=C1NC(=O)/C(=C/c2cccc(OC(=O)c3ccccc3)c2Cl)S1 [Compound 86, (Z)-2-chloro-3-((2,4-dioxothiazolidin-5-ylidene)methyl)phenyl benzoate] | 0.0541 | −12.12 | 184.9103
2 | CCOc1cc(/C=C2\SC(=O)NC2=O)ccc1OC(=O)CCC1CCCC1 [Compound 50, (Z)-4-((2,4-dioxothiazolidin-5-ylidene)methyl)-2-ethoxyphenyl 3-cyclopentylpropanoate] | 0.029 | 89.67 | 519.6554
3 | O=C(CC1CCCC1)Oc1ccc(/C=C2\SC(=O)NC2=O)cc1 [Compound 64, (Z)-4-((2,4-dioxothiazolidin-5-ylidene)methyl)phenyl 2-cyclopentylacetate] | 0.0521 | 25.34 | 199.4576
4 | O=C1NC(=O)/C(=C/c2ccc(OC(=O)C3CC3)cc2Cl)S1 [Compound 91, (Z)-3-chloro-4-((2,4-dioxothiazolidin-5-ylidene)methyl)phenyl cyclopropanecarboxylate] | 1.08 | −4.5498 | 106.5773
5 | O=C1NC(=O)/C(=C/c2cccc(OC(=O)C3CCCC3)c2Cl)S1 [Compound 78, (Z)-2-chloro-3-((2,4-dioxothiazolidin-5-ylidene)methyl)phenyl cyclopentanecarboxylate] | 0.0562 | −67.32 | 39.11
6 | O=C(Cc1ccccc1)Oc1ccc(/C=C2\SC(=O)NC2=O)cc1 [Compound 72, (Z)-4-((2,4-dioxothiazolidin-5-ylidene)methyl)phenyl 2-phenylacetate] | 0.108 | −18.07 | 105.832
7 | O=C(CCC1CCCC1)Oc1ccc(/C=C2\SC(=O)NC2=O)cc1Br [Compound 20, (Z)-2-bromo-4-((2,4-dioxothiazolidin-5-ylidene)methyl)phenyl 3-cyclopentylpropanoate] | 0.0158 | 227.32 | 828.2384
8 | COc1cc(/C=C2\SC(=O)NC2=O)ccc1OC(=O)CCCCc1ccccc1 [Compound 45, (Z)-4-((2,4-dioxothiazolidin-5-ylidene)methyl)-2-methoxyphenyl 5-phenylpentanoate] | 0.0389 | 78.78 | 362.494
9 | O=C(CC1CCCC1)Oc1cccc(/C=C2\SC(=O)NC2=O)c1Cl [Compound 79, (Z)-2-chloro-3-((2,4-dioxothiazolidin-5-ylidene)methyl)phenyl 2-cyclopentylacetate] | 0.0428 | −2.34 | 116.875
10 | O=C(CCc1ccccc1)Oc1ccc(/C=C2\SC(=O)NC2=O)c(Cl)c1 [Compound 103, (Z)-3-chloro-4-((2,4-dioxothiazolidin-5-ylidene)methyl)phenyl 3-phenylpropanoate] | 0.0875 | 159.989 | 290.2972
11 | O=C(CCc1ccccc1)Oc1ccc(/C=C2\SC(=O)NC2=O)cc1 [Compound 73, (Z)-4-((2,4-dioxothiazolidin-5-ylidene)methyl)phenyl 3-phenylpropanoate] | 0.0544 | 102.39 | 261.4347
12 | O=C(CCCCc1ccccc1)Oc1ccc(/C=C2\SC(=O)NC2=O)cc1Cl [Compound 15, (Z)-2-chloro-4-((2,4-dioxothiazolidin-5-ylidene)methyl)phenyl 5-phenylpentanoate] | 0.044 | 84.11 | 220.3344
13 | O=C1NC(=O)/C(=C/c2ccc(OC(=O)C3CCCCC3)cc2)S1 [Compound 66, (Z)-4-((2,4-dioxothiazolidin-5-ylidene)methyl)phenyl cyclohexanecarboxylate] | 0.0888 | 2.49 | 132.3901
14 | O=C1NC(=O)/C(=C/c2ccc(OC(=O)C3CC3)cc2)S1 [Compound 61, (Z)-4-((2,4-dioxothiazolidin-5-ylidene)methyl)phenyl cyclopropanecarboxylate] | 1.41 | −99.97 | 0.04774
15 | O=C1NC(=O)/C(=C/c2ccc(OC(=O)C3CCCC3)c(Cl)c2)S1 [Compound 3, (Z)-2-chloro-4-((2,4-dioxothiazolidin-5-ylidene)methyl)phenyl cyclopentanecarboxylate] | 0.196 | −30.1 | 191.3645
16 | O=C(CCCCC1CCCCC1)Oc1cccc(/C=C2\SC(=O)NC2=O)c1Cl [Compound 85, (Z)-2-chloro-3-((2,4-dioxothiazolidin-5-ylidene)methyl)phenyl 5-cyclohexylpentanoate] | 0.0256 | −7.79 | 194.0212
17 | O=C(CC1CCCC1)Oc1ccc(/C=C2\SC(=O)NC2=O)c(Cl)c1 [Compound 94, (Z)-3-chloro-4-((2,4-dioxothiazolidin-5-ylidene)methyl)phenyl 2-cyclopentylacetate] | 0.0327 | 97.1474 | 220.1299
18 | O=C(CC1CCCCC1)Oc1ccc(/C=C2\SC(=O)NC2=O)c(Cl)c1 [Compound 97, (Z)-3-chloro-4-((2,4-dioxothiazolidin-5-ylidene)methyl)phenyl 2-cyclohexylacetate] | 0.0277 | 8.1011 | 120.703
19 | O=C1NC(=O)/C(=C/c2ccc(OC(=O)C3CCCCC3)c(Cl)c2)S1 [Compound 6, (Z)-2-chloro-4-((2,4-dioxothiazolidin-5-ylidene)methyl)phenyl cyclohexanecarboxylate] | 0.137 | 27.71 | 349.6304
20 | O=C(CC1CCCCC1)Oc1ccc(/C=C2\SC(=O)NC2=O)cc1Cl [Compound 7, (Z)-2-chloro-4-((2,4-dioxothiazolidin-5-ylidene)methyl)phenyl 2-cyclohexylacetate] | 0.0238 | 20.36 | 329.5084
21 | CCOc1cc(/C=C2\SC(=O)NC2=O)ccc1OC(=O)C1CCCC1 [Compound 48, (Z)-4-((2,4-dioxothiazolidin-5-ylidene)methyl)-2-ethoxyphenyl cyclopentanecarboxylate] | 1.4 | −22.79 | 211.539
22 | O=C1NC(=O)/C(=C/c2cccc(OC(=O)C3CCC3)c2Cl)S1 [Compound 77, (Z)-2-chloro-3-((2,4-dioxothiazolidin-5-ylidene)methyl)phenyl cyclobutanecarboxylate] | 0.482 | 56.54 | 187.3399
23 | O=C(CCCCC1CCCCC1)Oc1ccc(/C=C2\SC(=O)NC2=O)c(Cl)c1 [Compound 100, (Z)-3-chloro-4-((2,4-dioxothiazolidin-5-ylidene)methyl)phenyl 5-cyclohexylpentanoate] | 0.0394 | −3.7411 | 107.4803
24 | O=C(CCc1ccccc1)Oc1ccc(/C=C2\SC(=O)NC2=O)cc1Cl [Compound 13, (Z)-2-chloro-4-((2,4-dioxothiazolidin-5-ylidene)methyl)phenyl 3-phenylpropanoate] | 0.0418 | 16.39 | 139.2902
25 | COc1cc(/C=C2\SC(=O)NC2=O)ccc1OC(=O)CCC1CCCC1 [Compound 35, (Z)-4-((2,4-dioxothiazolidin-5-ylidene)methyl)-2-methoxyphenyl 3-cyclopentylpropanoate] | 0.0234 | 130.79 | 455.1278
26 | O=C(CCc1ccccc1)Oc1cccc(/C=C2\SC(=O)NC2=O)c1Cl [Compound 88, (Z)-2-chloro-3-((2,4-dioxothiazolidin-5-ylidene)methyl)phenyl 3-phenylpropanoate] | 0.0225 | 113.47 | 449.1671
27 | O=C(CC1CCCCC1)Oc1ccc(/C=C2\SC(=O)NC2=O)cc1 [Compound 67, (Z)-4-((2,4-dioxothiazolidin-5-ylidene)methyl)phenyl 2-cyclohexylacetate] | 0.0305 | 8.34 | 139.9468
